Results from publication PMC10384408, “Anticancer Tungstenocenes with a Diverse Set of (O,O–), (O,S–) and (O,N–) Chelates—A Detailed Biological Study Using an Improved Evaluation via 3D Spheroid Models” (Pharmaceutics, 2023).
Like-named read-outs stand apart in the source and are kept apart here.

Experiments:
[1] = system: SW480 (colon carcinoma) cells; details: MTT assay, 96 h; cited from earlier work
[2] = system: IMR-90 human lung fibroblasts; test: MTT cytotoxicity assay, IMR-90 fibroblasts; type: cell-based; details: exposure time 96 h, mean ± SD
Protocol: (§1) CH1/PA-1 (ovarian teratocarcinoma), SW480 (colon carcinoma) and A549 (non-small cell lung cancer) cells were maintained as described in the reference. IMR-90 human fetal lung fibroblasts (from the European Collection of Authenticated Cell Cultures, Porton Down, Salisbury, UK) were cultured in Stable Cell^TM DMEM/F12 supplemented with 0.01 mg/mL human recombinant insulin (both purchased from Sigma-Aldrich) and 10% fetal bovine serum (FBS, BioWest, Nuaillé, France). Human colon carcinoma cell lines HCT116 and HT29 (both kindly provided by the Institute of Cancer Research, Department of Medicine I, Medical University of Vienna, Austria) were cultured in McCoy’s 5a medium supplemented with 4 mM L-glutamine (both purchased from Sigma-Aldrich) and 10% FBS. MCF-7 human breast adenocarcinoma cells (kindly provided by M. Ogris, Department of Pharmaceutical Sciences, University of Vienna, Austria) were maintained in DMEM (high glucose) supplemented with 4 mM L-glutamine, 0.1 mg/mL human insulin (all purchased from Sigma-Aldrich) and 10% FBS. All cell lines were grown as monolayers in 75 cm^2 culture flasks (CytoOne, Starlab, Hamburg, Germany) at 37 °C in a humidified atmosphere containing 5% CO2.
(§2) Exponentially growing cells were plated into 96-well microculture plates (CytoOne, tissue culture treated, Starlab, Hamburg, Germany) in densities of 1 × 10^3 CH1/PA-1, 2 × 10^3 SW480, 3 × 10^3 A549 and 7 × 10^3 IMR-90 cells per well (each in 100 µL). After a 24 h preincubation, drugs were added in serial dilution to give a final volume of 200 µL/well and exposed for 96 h. At the end of the exposure, the drug solutions were replaced by 100 µL RPMI 1640/MTT mixture (7:1 ratio). MTT (3-(4,5-dimethylthiazol-2-yl)-2,5-diphenyl-2H-tetrazolium bromide), (Acros Organics, Geel, Belgium) solution was prepared in phosphate-buffered saline (5 mg/mL) and mixed with RPMI1640 medium supplemented with 4 mM L-glutamine (both from Sigma-Aldrich) and 10% FBS. After 4 h incubation, the formazan crystals were solubilized in 150 µL of DMSO per well. Absorbance was measured at 550 nm (and at 690 nm as a reference) with a microplate reader (ELx808, BioTek, Winoosky, VT, USA) and Gen5^TM 3.08 software (BioTek). The 50% inhibitory concentrations (IC50) relative to untreated controls were interpolated from concentration-effect curves. At least three biologically and technically independent experiments were performed.

[3] = system: A549 (non-small cell lung carcinoma) cells; details: MTT assay, 96 h; cited from earlier work
[4] = system: CH1/PA-1 (ovarian teratocarcinoma) cells; details: MTT assay, 96 h; cited from earlier work
[5] = Solubility in PBS (1% DMSO); type: physicochemical
Protocol: Stock solutions in DMSO of compounds 1–10 were utilized to determine the solubility in PBS by adding 1 vol% of the stock solution to a suitable amount of PBS. […] UV/Vis data were recorded on a Perkin Elmer Lambda 650 UV/Vis Spectrophotometer with a Peltier element for temperature control.

[6] = system: A549 (non-small cell lung carcinoma) cells; test: MTT cytotoxicity assay, A549 monolayer; type: cell-based, human; details: for activity in A549: 96 h; for IC50: exposure time 96 h, mean ± SD
Protocol: as §1, §2

[7] = Cyclic voltammetry in MeCN (W(IV) to W(V)); type: physicochemical; details: vs. NHE, scan rate 200 mV/s
Protocol: NMR spectra were recorded with a Bruker FT-NMR Avance III^TM 500 MHz spectrometer at 500.10 (^1H), and 125.75 MHz (^13C) using DMSO–d6. 2D-NMR measurements were recorded utilizing standard pulse programs COSY, HSQC and HMBC. The Microanalytical Laboratory of the University of Vienna performed the elemental analyses with a Eurovector EA 3000(2009) equipped with a high temperature pyrolysis furnace (HT, Hekatech, Germany, 2009). Elemental analyses’ samples were weighed (weights from 1–3 mg were used) on a Sartorius SEC 2 ultra-micro balance with ±0.1 µg resolution. Two NIST-certified reference materials were used for calibration: sulfanilamide (C6H8N2O2S) and BBOT (2,5-bis-(5-tert-butyl-2-benzoxazol-2-yl)-thiophenone, C26H26N2O2S). The limit of quantification (LOQ) was 0.05 w% for C, H, N and 0.02 w% for S. For samples without N and/or S, the content of these elements was determined and verified to be below the LOQ. X-ray diffraction analyses were carried out on a Bruker X8 APEX II CCD diffractometer at 100 K. ESI-MS were recorded on a Bruker AmaZon SL ion trap mass spectrometer (Bruker Daltonics GmbH). Data were obtained and processed with Compass 1.3 and Data Analysis 4.0 (Bruker Daltonics GmbH). Infrared spectra were attained on a Bruker Vertex 70 FT-IR-spectrometer with an ATR-unit (attenuated total reflection unit) in the range of 4000–600 cm^−1. Intensities of the reported bands are described with w for weak, m for medium and s for strong; broad signals are additionally specified with the letter b in front of these abbreviations. Cyclic voltammograms (CVs) were measured in a three-electrode cell using 2 mm diameter glassy carbon disk working electrode, a platinum auxiliary electrode and an Ag|Ag^+ reference electrode containing 0.1 M AgNO3. Measurements were carried out at room temperature using an EG&G PARC potentiostat/galvanostat 273A. The solutions were deoxygenized by purging a stream of argon for 3 min through the solution and the experiment was performed under an argon atmosphere. The potentials were measured in a freshly prepared solution of (n Bu4N)[BF4] (0.1 M) in acetonitrile using ferrocene (Fe(η^5-C5H5)2) (E1/2 = +0.72 V vs. NHE) as an internal standard and are quoted relative to the normal hydrogen electrode (NHE).
The electrochemical behavior of all complexes and the precursor Cp2WCl2 was studied by cyclic voltammetry with a scan rate of 200 mV/s, from −0.5 to +1.2 or +1.5 V. Measurements were performed in triplicate. Due to low water solubility of compounds 1–10 acetonitrile (MeCN) was utilized in order to reach the 2 mM concentration.

[8] = system: CH1/PA-1 (ovarian teratocarcinoma) cells; test: MTT cytotoxicity assay, CH1/PA-1 monolayer; type: cell-based, human; details: exposure time 96 h, mean ± SD
Protocol: as §1, §2

[9] = system: SW480 (colon carcinoma) cells; test: MTT cytotoxicity assay, SW480 monolayer; type: cell-based, human; details: for activity in SW480: 96 h; for IC50: exposure time 96 h, mean ± SD
Protocol: as §1, §2

HT29 cells [10] = test: Annexin V-FITC/PI apoptosis assay, HT29; details: HT29, 24 h, 200 µM
MCF-7 cells [11] = test: Annexin V-FITC/PI apoptosis assay, MCF-7; details: MCF-7, 24 h, 200 µM
[12] = system: HCT116, HT29 and MCF-7 cell lines; test: ROS detection (DCFH-DA assay); type: cell-based, human; details: 2, 20, 100 and 200 µM, 2 h
Protocol: Reactive oxygen species (ROS) generation was measured by means of the DCFH-DA assay. […] On the following day, cells were washed with 200 µL Hanks’ balanced salt solution (HBSS, Sigma-Aldrich, containing 1% FBS) and stained with 100 µL of 25 µM DCFH-DA (2′,7′-dichlorofluorescein diacetate, Sigma-Aldrich) in HBSS (containing 1% FBS) for 45 min at 37 °C in the dark. After the incubation period, cells were washed with 200 µL HBSS (1% FBS) and loaded with compounds at concentrations of 2 µM, 20 µM, 100 µM and 200 µM in 200 µL phenol-red-free MEM (1% FBS) in triplicates. As positive controls, cells were treated with 200 µM and 400 µM tert-butylhydroperoxide (Sigma-Aldrich). Wells containing only phenol-red-free medium with 1% FBS were used as blanks, and non-drug treated, cell containing wells as reference values. Fluorescence (excitation: 485/20 nm, emission: 516/20 nm) was recorded in 10 min intervals with the Synergy HT reader (BioTek) over 2 h.

HCT116 cells [13] = test: Annexin V-FITC/PI apoptosis assay, HCT116; type: cell-based, human; details: HCT116, 24 h, 200 µM
[14] = system: HT29 multicellular tumor spheroids; test: Resazurin assay, HT29 3D spheroids; type: cell-based, human; details: 96 h, spheroids
Protocol: as §1
(§3) For growing multicellular tumor spheroids, 400 HCT116, 400 HT29 or 800 MCF-7 cells per well were plated into round-bottom ultra-low attachment 96-well plates (Corning, Glendale, AZ, USA) in the media described above and incubated at 37 °C for 96 h. Spheroids were treated with 10 µM of the two most cytotoxic compounds 3 and 4 for another 96 h. The diameters of the spheroids were measured with Cell^F software under a CKX41 Olympus microscope before treatment and in constant daily intervals over the 96 h treatment period. For statistical analysis the t-test with Welsh’s correction was implemented in GraphPad Prism software (Version 6.01).
(§4) For the resazurin assay in monolayer cultures, cells were seeded into 96-well microculture plates (CytoOne, tissue culture treated, Starlab, Hamburg, Germany) in densities of 2 × 10^3 HCT116, 2 × 10^3 HT29 and 4 × 10^3 MCF-7 cells per well (each in 100 µL). For tests in 3D cultures, spheroids were grown as described above. After 24 h (for monolayers) or 4 days (for spheroids) the test compounds in the appropriate medium were added in serial dilution to the plates to obtain a total volume of 200 µL/well. Wells without cells, containing medium and resazurin (Alfa Aesar, Thermo Fisher, Kandel, Germany) solution were used as blanks. After 96 h exposure 20 µL of the resazurin solution (440 µM) were added to each well, followed by a 4 h (2D) or 12 h (3D) incubation period. Resorufin fluorescence was quantified at 530 nm (and a reference wavelength of 620 nm) by using a microplate reader (Synergy HT, BioTek) with Gen5^TM 3.10 software (BioTek).

MCF-7 cells [15] = test: Resazurin assay, MCF-7 2D monolayer; type: cell-based, human; details: 96 h
Protocol: as §1, §4

[16] = system: MCF-7 multicellular tumor spheroids; test: Resazurin assay, MCF-7 3D spheroids; type: cell-based, human; details: 96 h, spheroids
Protocol: as §1, §3, §4

HT29 cells [17] = test: Resazurin assay, HT29 2D monolayer; type: cell-based, human; details: 96 h
Protocol: as §1, §4

HCT116 cells [18] = test: Resazurin assay, HCT116 2D monolayer; type: cell-based, human; details: 96 h
Protocol: as §1, §4

[19] = system: HCT116 multicellular tumor spheroids; test: Resazurin assay, HCT116 3D spheroids; type: cell-based, human; details: 96 h, spheroids
Protocol: as §1, §3, §4

Structure (SMILES): N.N.[Cl][Pt][Cl] [Cisplatin]
- IC50 [1]: 2.3 ± 0.2 µM
- IC50 [2]: 14 ± 1 µM
- IC50 [3]: 3.8 ± 1 µM
- IC50 [4]: 0.073 ± 0.001 µM

Structure (SMILES): Cc1occc(=O)c1[O-].F[P-](F)(F)(F)(F)F.[W+4].c1cc[cH-]c1.c1cc[cH-]c1 [Compound 1, Bis(η^5-cyclopentadienyl)[2-methyl-3-(oxo-κO)-4-(1H)-pyran-4-ato-κO]tungsten(IV) hexafluorophosphate]
- Solubility in PBS (1% DMSO) [5]: 230 µg/mL
- activity in A549 [6]: no activity was observed
- IC50 [6]: > 200 µM
- E1/2 [7]: 1.037 V
- IC50 [8]: 85 ± 41 µM
- activity in SW480 [9]: no activity was observed
- IC50 [9]: > 200 µM

Structure (SMILES): Cc1occc(=O)c1[O-].[Cl-].[W+4].c1cc[cH-]c1.c1cc[cH-]c1 [Compound 1A, Bis(η^5-cyclopentadienyl)[2-methyl-3-(oxo-κO)-4-(1H)-pyran-4-ato-κO]tungsten(IV) chloride]
- Solubility in PBS (1% DMSO) [5]: 5000 µg/mL
- early apoptotic cells [%] AV+ / PI- (HT29 cells [10]): 3.5 ± 2.5%
- late apoptotic cells [%] AV+ / PI+ (HT29 cells [10]): 4.3 ± 0.9%
- necrotic cells [%] AV- / PI+ (HT29 cells [10]): 4.4 ± 4.8%
- viable cells [%] AV- / PI- (HT29 cells [10]): 87.8 ± 4.0%
- ∑apoptotic cells [%] (HT29 cells [10]; sum of early and late): 7.8%
- early apoptotic cells [%] AV+ / PI- (MCF-7 cells [11]): 1.1 ± 0.6%
- late apoptotic cells [%] AV+ / PI+ (MCF-7 cells [11]): 3.2 ± 1.3%
- necrotic cells [%] AV- / PI+ (MCF-7 cells [11]): 2.3 ± 0.5%
- viable cells [%] AV- / PI- (MCF-7 cells [11]): 94.3 ± 2.3%
- ∑apoptotic cells [%] (MCF-7 cells [11]; sum of early and late): 4.3%
- activity in A549 [6]: no activity was observed
- IC50 [6]: > 200 µM
- intracellular ROS levels [12]: Pronounced elevation of ROS levels
- early apoptotic cells [%] AV+ / PI- (HCT116 cells [13]): 5.6 ± 2.1%
- late apoptotic cells [%] AV+ / PI+ (HCT116 cells [13]): 16.1 ± 4.6%
- necrotic cells [%] AV- / PI+ (HCT116 cells [13]): 3.8 ± 2.1%
- viable cells [%] AV- / PI- (HCT116 cells [13]): 74.5 ± 7.0%
- ∑apoptotic cells [%] (HCT116 cells [13]; sum of early and late): 21.7%
- IC50 [8]: 147 ± 18 µM
- IC50 [14]: > 200 µM
- IC50 (MCF-7 cells [15]): > 200 µM
- IC50 [16]: > 200 µM
- IC50 (HT29 cells [17]): > 200 µM
- activity in SW480 [9]: no activity was observed
- IC50 [9]: > 200 µM
- IC50 (HCT116 cells [18]): > 200 µM
- IC50 [19]: > 200 µM

Structure (SMILES): [Cl-].[Cl-].[Mo+4].c1cc[cH-]c1.c1cc[cH-]c1 [Cp2MoCl2, Molybdenocene dichloride]
- IC50 [1]: > 200 µM
- IC50 [3]: > 200 µM
- IC50 [4]: > 200 µM
